≈ marks a conversion by molar mass, not a printed value. Entries after “also recorded” stand apart in the source; their conditions may differ. Where two headings read alike, the source gives them in different places. Blank lines part the entries; values can stand above or below the molecule they belong to.
How the values were obtained:
VEGF protein expression = assay: PanVEGF and VEGFxxxb ELISA; assay type: cell-based, human; conditions: FIG. 2C
Description: PanVEGF and VEGFxxxb enzyme-linked immunosorbent assay (ELISA).
One μg/ml pan-VEGF capture antibody (Duoset VEGF ELISA DY-293; R&D systems) was incubated overnight at room temperature. The plates were blocked (Superblock; Thermo Scientific) and serial dilutions of recombinant human (rh)VEGF165 or rhVEGF165b standards (ranging from 4 ng/ml to 16.25 pg/ml) were added, incubated alongside sample lysates, typically diluted 1:10. The plate was incubated for one hour at 37° C. with shaking, washed and incubated with 100 μl/well of either biotinylated goat anti-human VEGF (0.1 μg/ml; R & D systems) or mouse anti-human VEGF165b (0.25 μg/ml) for one further hour at 37° C. After washing, 100 μl/well of Horseradish Peroxidase (HRP)-conjugated streptavidin (1:200; R&D Systems) was added, and plates were left at room temperature for 20 minutes.
The plates were washed and colour change induced with substrate A and B (DY-999; R&D Systems) for 20 mins under light protection. The reaction was stopped by addition of 100 μl/well of 1M H2SO4 and the absorbance was read immediately in an ELISA plate reader (Dynex Technologies Opsys MR system plate reader) at 450 nm with a control reading at 570 nm. Revelation Quicklink 4.25 software was also used to calculate a standard curve from mean absorbance values of standards enabling the estimation of VEGF concentration for each sample.

[1] = test system: SRSF1 expression in ARPE-19 cells; assay: SRSF1 expression relative to tubulin in ARPE-19 cells; assay type: cell-based, human; conditions: 72 hours up to six days
Description: Protein samples (30-50 μg) were mixed with 1× sodium-dodecyl sulphate (SDS) loading buffer (100 mM Tris-HCl, 4% SDS, 20% glycerol, 0.2% (w/v) bromophenol blue, and 5% final concentration 2-mercaptoethanol, pH6.8). To denature the protein, samples were boiled for five minutes at 100° C.
Samples were subjected to polyacrylamide gel electrophoresis (PAGE) on a 12% SDS-PAGE gel at 90V in ice cold running buffer (25 mM Tris-HCl, 250 mM glycine, 0.1% SDS, pH8.3) for approximately 2.5 hours. The separated proteins were then electrophoretically blotted to a methanol-activated polyvinylidene fluoride (PVDF) membrane (Fisher Scientific) by wet transfer for two hours at 90V in transfer buffer (50 mM Tris-HCl, 38 mM glycine, 20% methanol, pH8.3). […] The washes were repeated and the bands were detected using the Enhanced Chemoluminiscence (ECL) SuperSignal West Femto Maximum Sensitivity Substrate kit (Pierce).
The SRPK inhibitors were tested in a series of in vitro assays to determine the effect of treatment on VEGF isoform expression. Initially the effect of compound treatment on SRPK1 and SRSF1 expression was determined.

SRPK2 = SRPK2 (Homo sapiens, UniProt P78362); assay: In vitro kinase assay, SRPK2; assay type: biochemical
SRPK2, sequence (P78362 whole entry, species assumed, canonical isoform): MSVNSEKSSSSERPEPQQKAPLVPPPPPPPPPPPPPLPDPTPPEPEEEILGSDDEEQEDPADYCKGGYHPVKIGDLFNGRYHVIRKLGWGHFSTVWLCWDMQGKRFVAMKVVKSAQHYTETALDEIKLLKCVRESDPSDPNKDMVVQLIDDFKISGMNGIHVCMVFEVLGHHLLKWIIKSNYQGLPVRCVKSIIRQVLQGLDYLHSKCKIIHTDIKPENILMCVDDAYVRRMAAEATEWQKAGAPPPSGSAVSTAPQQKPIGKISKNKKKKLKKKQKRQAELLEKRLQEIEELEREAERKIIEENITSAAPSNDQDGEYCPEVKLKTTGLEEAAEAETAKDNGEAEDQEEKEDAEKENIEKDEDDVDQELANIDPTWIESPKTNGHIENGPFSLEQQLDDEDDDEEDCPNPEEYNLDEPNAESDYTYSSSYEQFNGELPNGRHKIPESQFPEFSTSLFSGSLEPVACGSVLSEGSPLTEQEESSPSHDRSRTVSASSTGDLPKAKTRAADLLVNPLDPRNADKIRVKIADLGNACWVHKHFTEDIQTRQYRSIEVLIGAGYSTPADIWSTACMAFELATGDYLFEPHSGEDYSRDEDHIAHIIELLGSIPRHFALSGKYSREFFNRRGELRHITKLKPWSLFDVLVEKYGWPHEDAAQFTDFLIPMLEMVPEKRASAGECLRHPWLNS

[2] = test system: VEGF165 mRNA isoforms in primary RPE cells; assay: RT-PCR for VEGF165 / VEGF165b mRNA in primary RPE cells; assay type: cell-based, human; conditions: 5 μM, 24 hours, primary RPE cells
Description: ID NO: 5)). […] Cells were treated with […]6 and 7 and the PCR repeated.

SRPK1 = SRPK1 (Homo sapiens, UniProt Q96SB4); assay: In vitro kinase assay (Kinase-Glo), SRPK1; assay type: biochemical; conditions: for activity in the in vitro SRPK1 kinase assay: words
SRPK1, sequence (Q96SB4 whole entry, species assumed): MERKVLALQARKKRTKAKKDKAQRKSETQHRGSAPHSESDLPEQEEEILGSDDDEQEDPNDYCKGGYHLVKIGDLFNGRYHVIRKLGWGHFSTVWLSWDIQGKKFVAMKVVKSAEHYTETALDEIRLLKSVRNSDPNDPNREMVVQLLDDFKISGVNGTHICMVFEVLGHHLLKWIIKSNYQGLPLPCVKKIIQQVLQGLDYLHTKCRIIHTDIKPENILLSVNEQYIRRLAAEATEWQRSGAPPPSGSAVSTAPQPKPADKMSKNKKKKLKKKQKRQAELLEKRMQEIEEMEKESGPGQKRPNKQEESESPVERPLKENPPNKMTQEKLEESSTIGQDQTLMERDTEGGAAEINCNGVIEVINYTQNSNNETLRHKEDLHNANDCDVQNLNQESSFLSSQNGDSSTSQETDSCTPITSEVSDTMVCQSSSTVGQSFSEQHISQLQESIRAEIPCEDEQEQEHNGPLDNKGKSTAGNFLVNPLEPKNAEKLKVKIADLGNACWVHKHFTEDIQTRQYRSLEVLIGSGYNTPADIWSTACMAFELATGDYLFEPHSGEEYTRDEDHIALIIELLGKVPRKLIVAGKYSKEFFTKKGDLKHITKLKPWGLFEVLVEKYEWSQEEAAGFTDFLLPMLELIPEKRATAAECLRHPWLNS

[3] = test system: SRPK1 expression in ARPE-19 cells; assay: SRPK1 expression in ARPE-19 cells (western blot); assay type: cell-based, human; conditions: 10 μM, up to six days
laser-induced CNV [4] = assay: Laser-induced mouse CNV model, intravitreal injection; assay type: in vivo; conditions: for area of neovascular lesions, mouse laser-induced CNV model: discussion summary, route not stated; for neovascular area vs control injected eyes: two intravitreal injections of 10 ng
Description: (§1) Laser Lesion Induction Protocol
(§2) Six to eight week-old C57/B6 mice (B&K Laboratories) and adult Norway-Brown rats (Harlan Laboratories) were anaesthetized with an intraperitoneal injection of a mixture of 50 mg/kg ketamine and 0.5 mg/kg medetomidine. The pupils were dilated with 2.5% phenylephrine hydrochloride and 1% tropicamide. Four photocoagulation lesions were delivered with a krypton red laser (Mice: 250 mW, 0.01 s, 75 μm, Rats: 200 mW, 0.01 s, 75 μm, IRIS Medical 810 nm Oculight Slx laser) between the retinal vessels in a peripapillary distribution at a distance of 1-2 disc-diameters in each eye. Only laser lesions with a subretinal bubble at the time of treatment were included in the study. […] Animals were culled on either day 4 or day 14 and eyes were either unfixed for retinal dissection and protein extraction, or fixed and enucleated and choroids stained for isolectin-B4 and examined.

[5] = Pharmacokinetics in the eye after topical application (mass spectrometry)
[6] = test system: VEGF expression in retinal protein; assay: Retinal protein VEGF expression by western blot, rat CNV model; assay type: in vivo
Description: as §2
Retinal protein from SRPIN340 and saline treated eyes 4 days after initial treatment was assessed for VEGF expression by western blot. […] The expression of VEGFxxxb isoforms was investigated using mouse monoclonal 561 antibody (R&D systems).

[7] = Pharmacokinetics in the eye after intravitreal injection (mass spectrometry); assay type: in vivo, mouse; conditions: 20 ng intravitreal
laser-induced CNV [8] = assay: Laser-induced mouse CNV model, topical eye drops; assay type: in vivo
Description: as §1, §2
We performed a dose response trial investigating SRPIN340 topical eye drops. SRPIN340 was dissolved in a previously described drug delivery vehicle (Doukas et al., 2008) and administered twice daily. Fourteen days following laser insult choroids were fixed and flatmounted for isolectin staining and retinae were extracted for RNA analysis.

in vivo = conditions: CD-1, mouse, topical or ocular, 5 ug
laser-induced CNV [9] = assay: Laser-induced rat CNV model, intravitreal injection; assay type: in vivo; conditions: intravitreal (SRPIN340 25 ng)
Description: as §1, §2
MVRL10 therefore appeared to be a relatively specific inhibitor of SRPK1. To determine whether SRPK1 inhibition could inhibit CNV in animal models we tested these compounds alongside each other in a laser-induced mouse CNV model. […]

[10] = test system: VEGF165 mRNA in the retina; assay: VEGF165 mRNA expression in retinae after topical treatment; assay type: in vivo; conditions: mouse, day 14
CNV lesion area = conditions: cited from earlier work
neovascular AMD = conditions: 0.5 mg monthly, at one year; cited from earlier work
[11] = Table 1, read-out: IC50 (nM) for SRPK1

- inhibition of SRPK2 (SRPK2; words): no inhibition
- IC50 (SRPK1; FIG. 1B, read-out: IC50 SRPK1 kinase): > 10000 nM
Molecule: O=C(Nc1cc(C(F)(F)F)ccc1N1CCOCC1)c1cccnc1 [MVRL09, N-[2-(morpholin-4-yl)-5-(trifluoromethyl)phenyl]pyridine-3-carboxamide]
- VEGF expression relative to total protein (VEGF protein expression): significantly reduced total VEGF expression
- expression of SRSF1 relative to a tubulin control [1]: reduced expression of SRSF1
- expression of VEGF165b mRNA [2]: induced clear expression of VEGF165b
- expression of VEGF165 mRNA relative to GAPDH [2]: reduced the expression VEGF65 at RNA level
- SRPK1 expression [3]: failed to affect SRPK1 expression

- IC50 (SRPK1; FIG. 7, read-out: SRPK1 inhibition IC50): 173 nM
- IC50 (SRPK1; [11]): 177 nM
Molecule: CN(C)CCN1CCN(c2ccc(C(F)(F)F)cc2NC(=O)c2ccc(-c3cccnc3)o2)CC1 [SPHINX6]

Molecule: CN(C)CCNc1ccc(C(F)(F)F)cc1NC(=O)c1ccc(-c2cccnc2)o1 [SPHINX8]
- IC50 (SRPK1; [11]): 9310 nM
- activity in the in vitro SRPK1 kinase assay (SRPK1): no activity

Molecule: O=C(Nc1cc(C(F)(F)F)ccc1NCc1cccnc1)c1ccc(-c2cccnc2)o1 [SPHINX9]
- IC50 (SRPK1; [11]): > 10000 nM
- activity in the in vitro SRPK1 kinase assay (SRPK1): no activity

Molecule: O=C(Nc1cc(C(F)(F)F)ccc1NCc1cccnc1)c1ccc(-c2ccncc2)o1 [SPHINX10]
- IC50 (SRPK1; [11]): > 10000 nM
- activity in the in vitro SRPK1 kinase assay (SRPK1): no activity

- IC50 (SRPK1; [11]): 367 nM
Molecule: CN1CCN(c2ccc(C(F)(F)F)cc2NC(=O)c2ccc(-c3cccnc3)o2)CC1 [SPHINX12]

- IC50 (SRPK1; [11]): 1270 nM
Molecule: CN1CCN(c2ccc(C(F)(F)F)cc2NC(=O)c2ccc(C#N)o2)CC1 [SPHINX14]

- preference for SRPK1 over SRPK2 (SRPK2): greater than 10 fold
- inhibition at 10 µM (SRPK2; at 10 μM): 10%
Molecule: Cc1ccc(C(=O)Nc2cc(C(F)(F)F)ccc2N2CCOCC2)o1 [SPHINX, 5-methyl-N-[2-(morpholin-4-yl)-5-(trifluoromethyl)phenyl]furan-2-carboxamide]
- SRPK1 expression [3]: did appear to reduce SRPK1 expression
- area of neovascular lesions, mouse laser-induced CNV model (laser-induced CNV [4]): achieving significance
- neovascular area vs control injected eyes (laser-induced CNV [4]; mouse): significantly reduced neovascular area

Molecule: O=C(Nc1cc(C(F)(F)F)ccc1N1CCCCC1)c1ccncc1 [SRPIN340, N-[2-(1-piperidinyl)-5-(trifluoromethyl)phenyl]isonicotinamide]
- detection in the eye ([5]; 48 hours after a single topical administration): still detectable
- systemic detection ([5]; after a single topical administration): not detected systemically
- fraction of total applied dose detected in the eye ([5]; single topical 5 μg, after 1 hour, whole eye): 3.5%
- fraction of applied dose detected in the posterior chamber ([5]; single topical 5 μg, after 12 hours): 0.15%
- VEGF expression relative to total protein (VEGF protein expression): significantly reduced total VEGF expression
- expression of SRSF1 relative to a tubulin control [1]: reduced expression of SRSF1
- ratio of pro to anti-VEGF isoforms in retinal protein ([6]; rat, 4 days after initial treatment): No difference in the ratio of pro to anti-VEGF isoforms
- VEGF expression in retinal protein ([6]; rat, 4 days after initial treatment, western blot): decrease in the expression of VEGF; also recorded: reduced CNV area and total VEGF protein expression
- expression of VEGFxxxb isoforms in rat retinae ([6]; vs saline controls): no change in the expression of VEGFxxxb isoforms
- concentration in the eye ([7]; over a 2 day period): > 10 ng/mL
- half-life ([7]; mouse, eye tissue, 1-48 hours curve fit, read-out: sustained half-life in the eye (converted)): 22 h
- IC50 (SRPK2): 7400 nM
- expression of VEGF165 mRNA relative to GAPDH [2]: reduced the expression VEGF65 at RNA level
- IC50 (SRPK1): 960 nM
- CNV area, 0.01% solution (laser-induced CNV [8]; 0.01% solution in gel drug delivery vehicle, topical): significant inhibition of CNV area
- EC50 (laser-induced CNV [8]; Mus musculus, topical, read-out: EC50 on CNV, topical): 3.19 µg/mL (≈ 9.12 µM)
- CNV formation, eye drop (laser-induced CNV [8]; mouse, topical): significantly inhibited CNV formation; also recorded: significantly suppressed CNV
- EC50 on CNV lesion area, topical drops (laser-induced CNV [8]; mouse, twice daily eye drops, total dose): 640 ng
- half-life (in vivo): 0.583 h
- CNV area vs saline injected controls (laser-induced CNV [9]): significantly reduced the CNV area
- VEGF165 mRNA expression in the retinae [10]: reduced; also recorded: near significant reduction in VEGF165
- SRPK1 expression [3]: failed to affect SRPK1 expression
- area of neovascular lesions, mouse laser-induced CNV model (laser-induced CNV [4]): achieving significance
- EC50 on CNV area (laser-induced CNV [4]; mouse, intravitreal, total injected dose): 1.28 ng
- neovascular area vs control injected eyes (laser-induced CNV [4]; mouse): significantly reduced neovascular area

Molecule: Cc1cc(-c2cc(OC(=O)c3ccccc3)ccc2Cl)cc2nnc(Nc3ccc(OCCN4CCCC4)cc3)nc12 [TG100801]
- CNV lesion area (CNV lesion area; twice daily topical 0.6%): not
- CNV lesion area (CNV lesion area; twice daily topical 1%): significantly reduced CNV lesion area

B1: Lucentis: humanized anti-VEGF antibody fragment, FDA approved for the treatment of neovascular AMD (antibody, chains of the INN, looked up, V domains shown)
VH: EVQLVESGGGLVQPGGSLRLSCAASGYDFTHYGMNWVRQAPGKGLEWVGWINTYTGEPTYAADFKRRFTFSLDTSKSTAYLQMNSLRAEDTAVYYCAKYPYYYGTSHWYFDVWGQGTLVTVSS
VL: DIQLTQSPSSLSASVGDRVTITCSASQDISNYLNWYQQKPGKAPKVLIYFTSSLHSGVPSRFSGSGSGTDFTLTISSLQPEDFATYYCQQYSTVPWTFGQGTKVEIK
modifications: Fab
notes: humanized anti-VEGF antibody fragment, FDA approved for the treatment of neovascular AMD
- patients who maintained visual acuity (loss of <15 letters) (neovascular AMD): approximately 95%
- patients with improved vision (gain of ≥15 letters) (neovascular AMD): ≤ 40%

From patent US10301264B2, “Compounds useful for treating ocular neovasculan” (The University of Nottingham, priority 2012, dated 2019)
